Experimental data: patent US6355261B1, “Ultraviolet radiation absorbing waxes useful in cosmetic compositions” (priority 1999, dated 2002)

Tests used:
[1] = Solubility of HDDS in esters of dibasic acids; format: physicochemical
[2] = Ultraviolet radiation transmittance and SPF of sunscreen lotions, LABSPHERE Ultraviolet Transmittance Analyzer
Procedure: Sunscreen lotion compositions were made and tested for UV absorbance. A control sample sunscreen lotion was made without a compound of formula (I) and a test sample was made in accordance with the invention, using a compound of formula (I) wherein n is 6 (HDDS). Table 1 summarizes the composition of the control and HDDS sunscreen lotions, by wt. %.
To prepare the sunscreen lotions, the A phase ingredients were blended together and heated to 90° C. to dissolve the oxybenzone. Next, the B phase ingredients were added with stirring until homogeneous. In a separate vessel, EDTA was dissolved in water and heated to 85° C. A preblended mixture of preservative, butylene glycol, and glycerin was added to the EDTA/water solution. In a separate vessel, carbomer was dispersed in 50 g water and set aside. With homogenization, the A+B oil phase was added to the C water phase. Next, the pre-dispersed carbomer D phase was added to the A+B+C mixture. While maintaining the temperature at 85° C., the mixture was homogenized for about 10 minutes, and then removed from heat and stirred with a propellor while cooling. When the temperature was below 40° C., the neutralizer E was slowly added and the mixture was stirred until a smooth, homogeneous lotion resulted.
Ultraviolet radiation transmittance and SPF of the control and HDDS samples were measured over the range 290 to 400 nm using a LABSPHERE Ultraviolet Transmittance Analyzer. Five scans were performed on each sample. Critical Wavelength (nm) and SPF data are reported in Table 2 below for the control and HDDS samples.
The ordinate represents absorbance, in units log(base 10)*(1/transmittance (%)), and the abscissa represents wavelength in nanometers.

[3] = HDDS in a sunscreen lotion versus control lotion

O=C(OCCCCCCOC(=O)c1ccccc1O)c1ccccc1O [HDDS, hexanediol disalicylate]
soluble in diisopropyl adipate ([1]; solvent diisopropyl adipate): at least 5 % by weight | soluble in dilsopropyl sebacate ([1]; solvent dilsopropyl sebacate): at least 5 % by weight | soluble in dioctyl adipate ([1]; solvent dioctyl adipate): at least 5 % by weight | soluble in dioctyl maleate ([1]; solvent dioctyl maleate): at least 5 % by weight | soluble in dioctyl sebacate ([1]; solvent dioctyl sebacate): at least 5 % by weight | UV absorbance of the lotion ([2]; FIG. 1, average of five scans, versus control sample): increases UV absorbance of the lotion at every wavelength of radiation measured | SPF value of the lotion [2, 3]: boosts the SPF value | transmittance of UVA and UVB radiation [2, 3]: reduces the transmittance of UVA and UVB radiation
